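GI50 = concentration required for 50% inhibition of growth. TGI denotes the concentration required for complete inhibition of growth.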
How the values were obtained:
Assay in all cases: inhibition of tumour cell growth, NCI panel, 384-well format
NCI-H23 lung = test system: NCI-H23 lung
NCI-H322M lung = test system: NCI-H322M lung
NCI-H460 NSCLC = test system: NCI-H460 NSCLC
NCI-H522 lung = test system: NCI-H522 lung
NCI/ADR-RES ovarian = test system: NCI/ADR-RES ovarian
OVCAR-3 ovarian = test system: OVCAR-3 ovarian
OVCAR-4 ovarian = test system: OVCAR-4 ovarian
OVCAR-5 ovarian = test system: OVCAR-5 ovarian
OVCAR-8 ovarian = test system: OVCAR-8 ovarian
PC-3 prostate = test system: PC-3 prostate
RPMI-8226 leukemia = test system: RPMI-8226 leukemia
RXF 393 renal = test system: RXF 393 renal
SF-268 CNS = test system: SF-268 CNS
SF-295 CNS = test system: SF-295 CNS
SF-539 CNS = test system: SF-539 CNS
SK-MEL-2 melanoma = test system: SK-MEL-2 melanoma
SK-MEL-28 melanoma = test system: SK-MEL-28 melanoma
SK-MEL-5 melanoma = test system: SK-MEL-5 melanoma
SK-OV-3 ovarian = test system: SK-OV-3 ovarian
SN12C renal = test system: SN12C renal
SNB-19 CNS = test system: SNB-19 CNS
SNB-75 CNS = test system: SNB-75 CNS
SR leukemia = test system: SR leukemia
SW-620 colon = test system: SW-620 colon
T-47D breast = test system: T-47D breast
TK-10 renal = test system: TK-10 renal
U251 glioblastoma = test system: U251 glioblastoma
UACC-257 melanoma = test system: UACC-257 melanoma
UACC-62 melanoma = test system: UACC-62 melanoma
UO-31 renal = test system: UO-31 renal

**Q.** With `O=C(c1ccc(Oc2ccccc2)cc1Cl)c1c[nH]c2ncnc(N[C@@H]3CC[C@@H](CO)OC3)c12` as the compound, how does the TGI (NCI-H23 lung) read?
**A.** The TGI was 385 nM.

**Q.** What about the GI50 (NCI-H322M lung) of the same compound?
**A.** Its GI50 is 249 nM.

**Q.** What about the TGI (NCI-H322M lung) of the same compound?
**A.** The TGI was 1780 nM.

**Q.** And the GI50 (NCI-H460 NSCLC)?
**A.** Its GI50 is 771 nM.

**Q.** What about the TGI (NCI-H460 NSCLC) of the same compound?
**A.** Its TGI is 3650 nM.

**Q.** What about the GI50 (NCI-H522 lung) of the same compound?
**A.** The GI50 was 49.4 nM.

**Q.** What about the TGI (NCI-H522 lung) of the same compound?
**A.** Its TGI is 366 nM.

**Q.** And the GI50 (NCI/ADR-RES ovarian)?
**A.** The GI50 was 1130 nM.

**Q.** What about the TGI (NCI/ADR-RES ovarian) of the same compound?
**A.** The TGI was 2480 nM.

**Q.** What about the GI50 (OVCAR-3 ovarian) of the same compound?
**A.** The GI50 was 130 nM.

**Q.** What about the TGI (OVCAR-3 ovarian) of the same compound?
**A.** Its TGI is 3180 nM.

**Q.** And the GI50 (OVCAR-4 ovarian)?
**A.** The GI50 was 1130 nM.

**Q.** And the TGI (OVCAR-4 ovarian)?
**A.** The TGI was 7200 nM.

**Q.** And the GI50 (OVCAR-5 ovarian)?
**A.** The GI50 was 153 nM.

**Q.** What about the TGI (OVCAR-5 ovarian) of the same compound?
**A.** The TGI was 938 nM.

**Q.** And the GI50 (OVCAR-8 ovarian)?
**A.** The GI50 was 390 nM.

**Q.** What about the TGI (OVCAR-8 ovarian) of the same compound?
**A.** Its TGI is 2080 nM.

**Q.** And the GI50 (PC-3 prostate)?
**A.** Its GI50 is 2320 nM.

**Q.** And the TGI (PC-3 prostate)?
**A.** The TGI was 11600 nM.

**Q.** And the GI50 (RPMI-8226 leukemia)?
**A.** The GI50 was 696 nM.

**Q.** And the TGI (RPMI-8226 leukemia)?
**A.** Its TGI is 2190 nM.

**Q.** What about the GI50 (RXF 393 renal) of the same compound?
**A.** Its GI50 is 210 nM.

**Q.** What about the TGI (RXF 393 renal) of the same compound?
**A.** The TGI was 920 nM.

**Q.** What about the GI50 (SF-268 CNS) of the same compound?
**A.** The GI50 was 482 nM.

**Q.** What about the TGI (SF-268 CNS) of the same compound?
**A.** The TGI was 4890 nM.

**Q.** What about the GI50 (SF-295 CNS) of the same compound?
**A.** Its GI50 is 1000 nM.

**Q.** What about the TGI (SF-295 CNS) of the same compound?
**A.** The TGI was 3330 nM.

**Q.** What about the GI50 (SF-539 CNS) of the same compound?
**A.** The GI50 was 338 nM.

**Q.** What about the TGI (SF-539 CNS) of the same compound?
**A.** The TGI was 1600 nM.

**Q.** And the GI50 (SK-MEL-2 melanoma)?
**A.** Its GI50 is 127 nM.

**Q.** And the TGI (SK-MEL-2 melanoma)?
**A.** The TGI was 289 nM.

**Q.** And the GI50 (SK-MEL-28 melanoma)?
**A.** Its GI50 is 13.3 nM.

**Q.** And the TGI (SK-MEL-28 melanoma)?
**A.** Its TGI is 55.8 nM.

**Q.** And the GI50 (SK-MEL-5 melanoma)?
**A.** Its GI50 is 33.7 nM.

**Q.** And the TGI (SK-MEL-5 melanoma)?
**A.** Its TGI is 1470 nM.

**Q.** What about the GI50 (SK-OV-3 ovarian) of the same compound?
**A.** The GI50 was 201 nM.

**Q.** And the TGI (SK-OV-3 ovarian)?
**A.** The TGI was 965 nM.

**Q.** What about the GI50 (SN12C renal) of the same compound?
**A.** The GI50 was 193 nM.

**Q.** What about the TGI (SN12C renal) of the same compound?
**A.** The TGI was 1380 nM.

**Q.** What about the GI50 (SNB-19 CNS) of the same compound?
**A.** The GI50 was 372 nM.

**Q.** And the TGI (SNB-19 CNS)?
**A.** The TGI was 3950 nM.

**Q.** What about the GI50 (SNB-75 CNS) of the same compound?
**A.** The GI50 was 801 nM.

**Q.** And the TGI (SNB-75 CNS)?
**A.** Its TGI is 2280 nM.

**Q.** And the GI50 (SR leukemia)?
**A.** The GI50 was 186 nM.

**Q.** What about the TGI (SR leukemia) of the same compound?
**A.** Its TGI is 343 nM.

**Q.** What about the GI50 (SW-620 colon) of the same compound?
**A.** Its GI50 is 151 nM.

**Q.** And the TGI (SW-620 colon)?
**A.** Its TGI is 1270 nM.

**Q.** And the GI50 (T-47D breast)?
**A.** The GI50 was 520 nM.

**Q.** And the TGI (T-47D breast)?
**A.** The TGI was 3210 nM.

**Q.** What about the GI50 (TK-10 renal) of the same compound?
**A.** Its GI50 is 185 nM.

**Q.** And the TGI (TK-10 renal)?
**A.** Its TGI is 543 nM.

**Q.** And the GI50 (U251 glioblastoma)?
**A.** Its GI50 is 462 nM.

**Q.** And the TGI (U251 glioblastoma)?
**A.** The TGI was 2510 nM.

**Q.** What about the GI50 (UACC-257 melanoma) of the same compound?
**A.** Its GI50 is 21.7 nM.

**Q.** And the TGI (UACC-257 melanoma)?
**A.** Its TGI is 83.9 nM.

**Q.** What about the GI50 (UACC-62 melanoma) of the same compound?
**A.** Its GI50 is 10.7 nM.

**Q.** What about the TGI (UACC-62 melanoma) of the same compound?
**A.** Its TGI is 54.7 nM.

**Q.** What about the GI50 (UO-31 renal) of the same compound?
**A.** The GI50 was 305 nM.

**Q.** And the TGI (UO-31 renal)?
**A.** The TGI was 1450 nM.
